# Measured values as given in patent US7851493B2, “Phenyl-1,2,4-oxadiazolone derivatives with phenyl group, processes for their preparation and their use as pharmaceuticals” (Sanofi-Aventis, priority 2005, dated 2010).
# Legend:
# [1] = molecular target: T1, human PPARalpha (Homo sapiens, UniProt Q07869); assay: Cellular PPARalpha assay (human GAL4 luciferase reporter, stably transfected HEK cell line); type: cell-based
# T1 construct: amino acids S167-Y468; expressed in transfected cells; plasmid pcDNA3
# T1 sequence (Q07869 167-468): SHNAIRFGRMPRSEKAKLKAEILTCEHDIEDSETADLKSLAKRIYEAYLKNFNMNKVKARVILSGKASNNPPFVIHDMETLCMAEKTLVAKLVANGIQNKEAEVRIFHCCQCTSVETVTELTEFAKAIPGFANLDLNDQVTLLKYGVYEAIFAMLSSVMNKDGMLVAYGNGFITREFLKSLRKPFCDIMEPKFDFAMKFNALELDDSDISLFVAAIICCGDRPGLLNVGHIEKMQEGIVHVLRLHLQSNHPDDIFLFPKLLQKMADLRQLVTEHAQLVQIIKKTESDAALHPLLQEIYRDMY
# Procedure: Determination of EC50 Values of PPAR Agonists in the Cellular PPARalpha Assay
# (§1) The potency of substances which bind to human PPARalpha and activate it in an agonistic manner is analyzed using a stably transfected HEK cell line (HEK=human embryo kidney) which is referred to here as PPARalpha reporter cell line. It contains two genetic elements, a luciferase reporter element (pdeltaM-GAL4-Luc-Zeo) and a PPARalpha fusion protein (GR-GAL4-humanPPARalpha-LBD) which mediates expression of the luciferase reporter element depending on a PPARalpha ligand. The stably and constitutively expressed fusion protein GR-GAL4-humanPPARalpha-LBD binds in the cell nucleus of the PPARalpha reporter cell line via the GAL4 protein portion to the GAL4 DNA binding motifs 5′-upstream of the luciferase reporter element which is stably integrated in the genome of the cell line. There is only weak expression of the luciferase reporter gene in the absence of a PPARalpha ligand if fatty acid-depleted fetal calf serum (cs-FCS) is used in the assay. PPARalpha ligands bind and activate the PPARalpha fusion protein and thereby stimulate the expression of the luciferase reporter gene. The luciferase which is formed can be detected by means of chemiluminescence via an appropriate substrate.
# Construction of the PPARalpha Reporter Cell Line
# The PPARalpha reporter cell line was prepared in two stages. Firstly, the luciferase reporter element was constructed and stably transfected into HEK cells. For this purpose, five binding sites of the yeast transcription factor GAL4 (Accession #AF264724) were cloned in 5′-upstream of a 68 bp-long minimal MMTV promoter (Accession #V01175). The minimal MMTV promoter section contains a […] and a TATA element in order to enable efficient transcription by RNA polymerase II. The cloning and sequencing of the GAL4-MMTV construct took place in analogy to the description of Sambrook J. et al. (Molecular cloning, Cold Spring Harbor Laboratory Press, 1989). Then the complete Photinus pyralis gene (Accession #15077) was cloned in 3′-downstream of the GAL4-MMTV element. After sequencing, the luciferase reporter element consisting of five GAL4 binding sites, MMTV promoter and luciferase gene was recloned into a plasmid which confers zeocin resistance in order to obtain the plasmid pdeltaM-GAL4-Luc-Zeo. This vector was transfected into HEK cells in accordance with the statements in Ausubel, F. M. et al. (Current protocols in molecular biology, Vol. 1-3, John Wiley & Sons, Inc., 1995).
# In a second step, the PPARalpha fusion protein (GR-GAL4-humanPPARalpha-LBD was introduced into the stable cell clone described. For this purpose, initially the cDNA coding for the N-terminal 76 amino acids of the glucocorticoid receptor (Accession #P04150) was linked to the cDNA section coding for amino acids 1-147 of the yeast transcription factor GAL4 (Accession #P04386). The cDNA of the ligand-binding domain of the human PPARalpha receptor (amino acids S167-Y468; Accession #S74349) was cloned in at the 3′-end of this GR-GAL4 construct. The fusion construct prepared in this way (GR-GAL4-humanPPARalpha-LBD) was recloned into the plasmid pcDNA3 (Invitrogen) in order to enable constitutive expression therein by the cytomegalovirus promoter. This plasmid was linearized with a restriction endonuclease and stably transfected into the previously described cell clone containing the luciferase reporter element. The finished PPARalpha reporter cell line which contains a luciferase reporter element and constitutively expresses the PPARalpha fusion protein (GR-GAL4-human PPARalpha-LBD) was isolated by selection with zeocin (0.5 mg/ml) and G418 (0.5 mg/ml).
# The activity of PPARalpha agonists is determined in a 3-day assay, which is described below: […]
# [2] = molecular target: T2, human PPARdelta (Homo sapiens, UniProt Q03181); assay: Cellular PPARdelta assay (human GAL4 luciferase reporter, stably transfected HEK cell line); type: cell-based
# T2 construct: amino acids S139-Y441; expressed in transfected cells; plasmid pcDNA3
# T2 sequence (Q03181 139-441): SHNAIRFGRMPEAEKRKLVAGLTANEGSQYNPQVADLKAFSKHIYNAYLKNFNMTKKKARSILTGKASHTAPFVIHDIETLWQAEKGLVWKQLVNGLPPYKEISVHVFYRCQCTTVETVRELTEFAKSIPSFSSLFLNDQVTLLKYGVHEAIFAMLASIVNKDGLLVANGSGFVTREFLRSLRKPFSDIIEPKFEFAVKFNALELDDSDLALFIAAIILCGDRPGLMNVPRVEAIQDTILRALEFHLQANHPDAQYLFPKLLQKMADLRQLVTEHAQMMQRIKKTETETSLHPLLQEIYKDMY
# Procedure: Determination of EC50 Values of PPAR Agonists in the Cellular PPARdelta Assay
# as §1, with “PPARdelta” for “PPARalpha”, “In analogy to the assay described for PPARalpha, the PPARdelta reporter cell line also” for “It”, “(GR-GAL4-humanPPARdelta-LBD)” for “(GR-GAL4-humanPPARalpha-LBD)”, “GR-GAL4-humanPPARdelta-LBD” for “GR-GAL4-humanPPARalpha-LBD”, “little” for “weak”, “stimulate” for “stimulate the”
# Construction of the PPARdelta Reporter Cell Line
# The production of the stable PPARdelta reporter cell line is based on a stable HEK-cell clone which was stably transfected with a luciferase reporter element. This step was already described above in the section “construction of the PPARalpha reporter cell line”. In a second step, the PPARdelta fusion protein (GR-GAL4-humanPPARdelta-LBD was stably introduced into this cell clone. For this purpose, the cDNA coding for the N-terminal 76 amino acids of the glucocorticoid receptor (Accession #P04150) was linked to the cDNA section coding for amino acids 1-147 of the yeast transcription factor GAL4 (Accession #P04386). The cDNA of the ligand-binding domain of the human PPARdelta receptor (amino acids S139-Y441; Accession #L07592) was cloned in at the 3′-end of this GR-GAL4 construct. The fusion construct prepared in this way (GR-GAL4-humanPPARdelta-LBD) was recloned into the plasmid pcDNA3 (Invitrogen) in order to enable constitutive expression by the cytomegalovirus promoter. This plasmid was linearized with a restriction endonuclease and stably transfected into the previously described cell clone containing the luciferase reporter element. The resulting PPARdelta reporter cell line which contains a luciferase reporter element and constitutively expresses the PPARdelta fusion protein (GR-GAL4-human PPARdelta-LBD) was isolated by selection with zeocin (0.5 mg/ml) and G418 (0.5 mg/ml).
# Assay Procedure and Evaluation
# The activity of PPARdelta agonists is determined in a 3-day assay in exact analogy to the procedure already described for the PPARalpha reporter cell line except that the PPARdelta reporter cell line and a specific PPARdelta agonist was used as a standard to control test efficacy.
EC50 [1] [nM],EC50 [2] [nM],Structure (SMILES)
1210,228,"Cc1cc(OCc2sc(-c3ccc(C(F)(F)F)cc3)nc2CNCCN2CCOCC2)ccc1-c1noc(=O)[nH]1 [Example 51, 3-{2-Methyl-4-[4-[(2-morpholin-4-yl-ethylamino)-methyl]-2-(4-trifluoromethyl-phenyl)-thiazol-5-ylmethoxy]-phenyl}-4H-[1,2,4]oxadiazol-5-one]"
1410,299,"CC(=O)OCc1nc(-c2ccc(C(F)(F)F)cc2)sc1COc1ccc(-c2noc(=O)[nH]2)c(F)c1 [Example 33, Acetic acid 5-[3-fluoro-4-(5-oxo-4,5-dihydro-[1,2,4]oxadiazol-3-yl)-phenoxymethyl]-2-(4-trifluoromethyl-phenyl)-thiazol-4-ylmethyl ester]"
664,18,"O=c1[nH]c(-c2ccc(OCc3sc(-c4ccc(C(F)(F)F)cc4)nc3CN3CCC(C(F)(F)F)CC3)cc2OC(F)F)no1 [Example 94, 3-{2-Difluoromethoxy-4-[2-(4-trifluoromethyl-phenyl)-4-(4-trifluoromethyl-piperidin-1-ylmethyl)-thiazol-5-ylmethoxy]-phenyl}-4H-1,2,4-oxadiazol-5-one]"
> 10000,153,"COc1cc(OCc2sc(-c3ccc(C(F)(F)F)cc3)nc2CNC2CC2)ccc1-c1noc(=O)[nH]1 [Example 15, 3-{4-[4-Cyclopropylaminomethyl-2-(4-trifluoromethyl-phenyl)-thiazol-5-ylmethoxy]-2-methoxy-phenyl}-4H-[1,2,4]oxadiazol-5-one]"
398,12,"O=c1[nH]c(-c2ccc(OCc3sc(-c4ccc(C(F)(F)F)cc4)nc3COCCC3CCCCC3)cc2Cl)no1 [Example 83, 3-{2-Chloro-4-[4-(2-cyclohexyl-ethoxymethyl)-2-(4-trifluoromethyl-phenyl)-thiazol-5-ylmethoxy]-phenyl}-4H-[1,2,4]oxadiazol-5-one]"

# Second part, the compound before the results:
Structure (SMILES),EC50 [1] [nM],EC50 [2] [nM]
"COc1cc(OCc2sc(-c3ccc(C(F)(F)F)cc3)nc2CN2CCC(C(F)(F)F)C2)ccc1-c1noc(=O)[nH]1 (racemic) [Example 9, 3-{2-Methoxy-4-[2-(4-trifluoromethyl-phenyl)-4-(3-trifluoromethyl-pyrrolidin-1-ylmethyl)thiazol-5-ylmethoxy]-phenyl}-4H-[1,2,4]oxadiazol-5-one]",729,56
"CN(CCO)Cc1nc(-c2ccc(C(F)(F)F)cc2)sc1COc1ccc(-c2noc(=O)[nH]2)c(F)c1 [Example 19, 3-{2-Fluoro-4-[4-{[(2-hydroxy-ethyl)-methyl-amino]-methyl}-2-(4-trifluoromethyl-phenyl)-thiazol-5-ylmethoxy]-phenyl}-4H-[1,2,4]oxadiazol-5-one]",1190,171
"COc1cc(OCc2sc(-c3ccc(C(F)(F)F)cc3)nc2CN2CCC(C(F)(F)F)CC2)ccc1-c1noc(=O)[nH]1 [Example 1, 3-{2-Methoxy-4-[2-(4-trifluoromethyl-phenyl)-4-(4-trifluoromethyl-piperidin-1-ylmethyl)-thiazol-5-ylmethoxy]-phenyl}-4H-[1,2,4]oxadiazol-5-one]",830,56
"COc1cc(OCc2sc(-c3ccc(C(F)(F)F)cc3)nc2CSC)ccc1-c1noc(=O)[nH]1 [Example 89, 3-{2-Methoxy-4-[4-methylsulfanylmethyl-2-(4-trifluoromethyl-phenyl)-thiazol-5-ylmethoxy]-phenyl}-4H-1,2,4-oxadiazol-5-one]",2620,153
"COCc1nc(/C=C/c2ccc(OC)cc2)oc1COc1ccc(-c2noc(=O)[nH]2)c(Cl)c1 [Example 55, 3-(2-Chloro-4-[4-methoxymethyl-2-[2-(4-methoxy-phenyl)-vinyl]-oxazol-5-ylmethoxy]-phenyl)-4H-[1,2,4]oxadiazol-5-one]",319,3
"Cc1nc(COCc2ccccc2)oc1COc1ccc(-c2noc(=O)[nH]2)c(Cl)c1 [Example 56, 3-[4-(2-Benzyloxymethyl-4-methyl-oxazol-5-ylmethoxy)-2-chloro-phenyl]-4H-[1,2,4]oxadiazol-5-one]",2190,358
"COc1ccc(-c2nc(COc3ccc(-c4noc(=O)[nH]4)c(C)c3)c(CN3CCOCC3)o2)cc1 [Example 68, 3-{4-[2-(4-Methoxy-phenyl)-5-morpholin-4-ylmethyl-oxazol-4-ylmethoxy]-2-methyl-phenyl}-4H-[1,2,4]oxadiazol-5-one]",1200,661
"COCCN(CCOC)Cc1nc(-c2ccc(C(F)(F)F)cc2)sc1COc1ccc(-c2noc(=O)[nH]2)c(Cl)c1 [Example 77, 3-{4-[4-{[Bis-(2-methoxy-ethyl)-amino]-methyl}-2-(4-trifluoromethyl-phenyl)-thiazol-5-ylmethoxy]-2-chloro-phenyl}-4H-[1,2,4]oxadiazol-5-one]",530,3
